Reference: patent publication US8883773B2, “Cephem compound having pseudo-catechol group” (Shionogi & Co., Ltd., priority 2010, dated 2014)
Converted amounts (≈) assume the structure as drawn. Like-named read-outs stand apart in the source and are kept apart here.

Legend:
Format in all cases: cell-based
[1] = system: Acinetobacter baumannii SR24396; test: in vitro antimicrobial activity, MIC by agar plate incubation (Japan Society for Chemotherapy method); details: 1000 cfu/spot, sensitive disc medium, read-out: Minimum Inhibitory Concentration (MIC)
Experimental: (§1) Compound (I) of the subject invention has been investigated for in vitro antimicrobial activity thereof.
(§2) (Microbe/Strain Species Nos. 1-4):
(§3) Measurement of Minimum Inhibitory Concentration (MIC: microgram/ml) was conducted according to the standard method of the Japan Society for Chemotherapy, and the amount of bacteria for inoculation was 1000 cfu/spot, and sensitive disc medium was used as the test medium, and conducted using agar plate incubation.
(§4) In the tables, the unit of the values of inhibitory activity is microgram/ml (μg/ml)

[2] = system: Klebsiella pneumoniae ATCC 700603; test: as above; details: ATCC700603, SHV-18, ESBL producing strain, 1000 cfu/spot, sensitive disc medium, read-out: Minimum Inhibitory Concentration (MIC)
Experimental: as §1, §2, §3, §4

[3] = system: Pseudomonas aeruginosa SR24; test: as above; details: no enzyme, Ceftazidime sensitive strain, 1000 cfu/spot, sensitive disc medium, read-out: Minimum Inhibitory Concentration (MIC)
Experimental: as §1, §2, §3, §4

[4] = system: Pseudomonas aeruginosa SR27060; test: as above; details: IMP-1, MBL producing strain (carbapenem resistant strain), 1000 cfu/spot, sensitive disc medium, read-out: Minimum Inhibitory Concentration (MIC)
Experimental: as §1, §2, §3, §4

[5] = system: Stenotrohomonas maltophilia SR21970; test: in vitro antimicrobial activity, MIC by agar plate incubation (CLSI method, Mueller-Hinton agar); details: L-1, MBL producing strain (carbapenem resistant strain), 10000 cfu/spot, read-out: Minimum Inhibitory Concentration (MIC)
Experimental: as §1
(Microbe/Strain Species Nos. 5):
Measurement of Minimum Inhibitory Concentration (MIC, microgram/ml) was conducted according to the CLSI (Clinical and Laboratory Standards Institute) and the amount of bacteria for inoculation was 10000 cfu/spot, and Mueller-Hinton agar medium was used as the test medium, and conducted using agar plate incubation.
as §4

[6] = SR24396, Acinetobacter baumannii SR24395 (Table 10)

Row | Compound | MIC [1, 6] | MIC [2] | MIC [3] | MIC [4] | MIC [5] | MIC ([1]; Acinetobacter baumannii SR24396 (Table 11))
1 | CC(C)(O/N=C(\C(=O)N[C@@H]1C(=O)N2C(C(=O)O)=C(C[N+]34CCC(CNC(=O)c5cc(=O)c(O)c[nH]5)(CC3)CC4)CS[C@H]12)c1csc(N)n1)C(=O)[O-] [Compound I-2] | 1 µg/mL (≈ 1.34 µM) | 1 µg/mL (≈ 1.34 µM) | 0.125 µg/mL (≈ 0.168 µM) | 1 µg/mL (≈ 1.34 µM) |  | 
2 | CC(C)(O/N=C(\C(=O)N[C@@H]1C(=O)N2C(C(=O)[O-])=C(C[N+]3(CCNC(=O)c4cc(=O)c(O)c[nH]4)CCCC3)CS[C@H]12)c1csc(N)n1)C(=O)[O][Na] [Compound I-4] | 0.5 µg/mL | 0.25 µg/mL | 0.063 µg/mL | 0.25 µg/mL | 1 µg/mL | 
3 | CC(C)(O/N=C(\C(=O)N[C@@H]1C(=O)N2C(C(=O)O)=C(C[N+]3(CCNC(=O)c4cc(=O)c(O)cn4O)CCCC3)CS[C@H]12)c1csc(N)n1)C(=O)[O-] [Compound I-6] | 0.25 µg/mL (≈ 0.34 µM) | 0.25 µg/mL (≈ 0.34 µM) | 0.063 µg/mL (≈ 0.0857 µM) | 0.25 µg/mL (≈ 0.34 µM) | 1 µg/mL (≈ 1.36 µM) | 
4 | Nc1nc(/C(=N/O[C@@H](CC(=O)O)C(=O)[O-])C(=O)N[C@@H]2C(=O)N3C(C(=O)O)=C(C[N+]45CCC[C@H]4CN(C(=O)c4cc(=O)c(O)c[nH]4)CC5)CS[C@H]23)cs1 (stereo partly shown) [Compound I-11] |  | 0.5 µg/mL (≈ 0.657 µM) | 0.25 µg/mL (≈ 0.329 µM) | 1 µg/mL (≈ 1.31 µM) | 1 µg/mL (≈ 1.31 µM) | 0.25 µg/mL (≈ 0.329 µM)
